# Measurements from PubChem BioAssay AID182 (DTP/NCI, 2004).
# Toxic doses and inconclusive results are not listed.
# System: BDF1 mice, P388/ADR leukemia ip, median survival T/C
# Experiment: NCI In Vivo Anticancer Drug Screen. Data for tumor model P388 Leukemia resistant to Adriamycin; NSC 123127, Developed at Scr 06 and 41 (intraperitoneal) in B6D2F1 (BDF1) mice
# Details: endpoint: median survival time; dose: 20.0 mg/kg/injection; schedule: Q04DX003 (ip); vehicle: clinical formulation; higher = longer survival
# Protocol: The antitumor activity of compounds was measured in mice bearing transplantable tumors. Survival or tumor size were measured and the results are expressed as the measurement made in the treated group (T) divided by the measurement made in the vehicle treated control group (C). The tumor model used in this assay is P388 Leukemia resistant to Adriamycin; NSC 123127, Developed at Scr 06 and 41 (intraperitoneal) in B6D2F1 (BDF1) mice
structure (smiles),measurement,value
CC1OC(O[C@H]2/C=C/C=C/C=C/C=C/C=C/C=C/C=C/[C@H](C)[C@@H](O)[C@@H](C)[C@H](C)OC(=O)C[C@H](O)C[C@H](O)CC[C@@H](O)[C@H](O)C[C@H](O)C[C@]3(O)C[C@H](O)[C@@H](C(=O)O)[C@H](C2)O3)C(O)C(N)C1O (stereo partly specified),T/C,93 % of control
